Values joined by “and” are separate entries in the source; they are usually repeats but may differ in a detail not shown here. Equal values may be shown once. Read-outs that look alike come from different tables or passages of the source.
Columns and labels:
[1] = molecular target: T1, WAR–HSA complex (Homo sapiens, UniProt P02768); experiment: Effects of ligands on the fluorescence emission signal of WAR–HSA complex; type: binding; settings: WAR 1 μM, HSA 3.5 μM, PBS pH 7.4, λex 317 nm; for Effect on the fluorescence emission signal of WAR (WAR–HSA complex): ligand 0–10 μM, λem 379 nm
T1 construct: purchased Merck (Darmstadt, Germany) A1653
T1 sequence (P02768 25-609, one chain of several): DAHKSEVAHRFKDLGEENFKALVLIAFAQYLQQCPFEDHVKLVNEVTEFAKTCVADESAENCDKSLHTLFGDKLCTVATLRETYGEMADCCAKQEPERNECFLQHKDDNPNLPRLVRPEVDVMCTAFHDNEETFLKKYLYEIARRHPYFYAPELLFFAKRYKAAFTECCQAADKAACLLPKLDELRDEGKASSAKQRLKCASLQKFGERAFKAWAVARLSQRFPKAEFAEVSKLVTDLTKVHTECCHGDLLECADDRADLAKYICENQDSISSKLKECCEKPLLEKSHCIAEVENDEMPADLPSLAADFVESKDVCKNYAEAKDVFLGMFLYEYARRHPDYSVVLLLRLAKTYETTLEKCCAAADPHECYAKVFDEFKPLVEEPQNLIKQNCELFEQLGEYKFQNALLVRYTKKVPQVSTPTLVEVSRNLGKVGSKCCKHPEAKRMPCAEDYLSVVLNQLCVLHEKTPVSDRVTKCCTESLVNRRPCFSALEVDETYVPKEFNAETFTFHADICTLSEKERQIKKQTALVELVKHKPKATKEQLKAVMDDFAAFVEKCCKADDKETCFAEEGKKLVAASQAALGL

[2] = molecular target: T2, human serum albumin (HSA) (Homo sapiens, UniProt P02768); experiment: Fluorescence quenching of HSA by Heme site ligands; type: binding; settings: HSA 2 μM; for Kd / Fluorescence Quenching Hyperquad logK: K unit L/mol; for Kd: read-out: Fluorescence Quenching Hyperquad logK (converted); for Fluorescence Quenching Stern–Volmer Plot logKSV: KSV unit L/mol
T2 construct: purchased Merck (Darmstadt, Germany) A1653
T2 sequence (P02768 25-609): as the sequence (P02768 25-609, one chain of several) above
Method: Fluorescence spectra were recorded in PBS (pH 7.4) at 25 °C, employing a Hitachi F-4500 fluorometer (Tokyo, Japan). Binding constants of BIL, BVD, HEM, and MO were also determined based on fluorescence quenching studies (λex = 295 nm). Emission spectra of HSA (2.0 μM) were recorded in the absence and presence of the increasing concentrations of Heme site ligands (0.0, 0.5, 1.0, 2.0, 3.0, 5.0, 7.0, 10, and 15 μM). Before the evaluation of emission intensity data at 340 nm, the inner-filter effect of ligand molecules was corrected using the following equation [60, 61]:(8) Icor=Iobs×e^(Aex+Aem)/2 where Icor and Iobs are the corrected and observed fluorescence emission intensities, respectively; Aex and Aem are the absorbance values of Heme site ligands at 295 and 340 nm, respectively.

[3] = tested on: HSA; settings: cited from earlier work
[4] = molecular target: T3, WAR–HSA interaction (Homo sapiens, UniProt P02768); experiment: Ultrafiltration: filtered fraction of WAR in the presence of HSA and ligands; type: binding; settings: WAR 1.0 μM, HSA 5.0 μM
T3 construct: purchased Merck (Darmstadt, Germany) A1653
T3 sequence (P02768 25-609): as the sequence (P02768 25-609, one chain of several) above
Method: Amicon Ultra-0.5 centrifugal filters (Merck, Darmstadt, Germany) with 30 kDa molecular weight cut-off (MWCO) value were applied. […] Before ultrafiltration, filter units were washed once with water (500 μL) then once with PBS (500 μL). […] A 500 μL aliquot of samples was transferred to the filter and centrifuged for 10 min at 7500 g and 25 °C (fixed angle rotor).
(§1) Chromatographic data were evaluated employing ChromNAV2 software (Jasco, Tokyo, Japan). […] Briefly, samples (20 μL) were driven through a guard column (SecurityGuard C18, 4.0 × 3.0 mm; Phenomenex, Torrance, CA, USA) linked to a Nova-Pak C18 analytical column (150 × 3.9 mm, 4 μm; Waters, Milford, MA, USA). The isocratic elution was performed at room temperature with 1.0 mL/min flow rate applying sodium phosphate buffer (20 mM, pH 7.0), methanol, and acetonitrile (70:25:5 v/v%) as the mobile phase.

[5] = molecular target: T3, WAR–HSA interaction; experiment: Ultracentrifugation: WAR in the supernatant in the presence of HSA and BIL or MO; type: binding; settings: WAR 1.0 μM, HSA 3.0 μM, ligand 5 or 20 μM, PBS pH 7.4; 170,000× g, 16 h, 20 °C; HPLC-FLD
Method: With the optimal conditions of ultracentrifugation, we can sediment the albumin fraction of a solution without the disruption of ligand–HSA interactions. Consequently, the free fraction of a ligand can be quantified from the supernatant. […] In 11 × 34 mm PC tubes (Beckman Coulter, Brea, CA, USA), a 900 μL aliquot of samples was centrifuged for 16 h at 170,000× g and 20 °C applying a Beckman Coulter Optima MAX-XP tabletop ultracentrifuge (with MLA-130 fixed-angle rotor). Then a 200 μL volume of the supernatant was carefully removed and directly analyzed by HPLC-FLD (see in Section 3.6).
as §1, with “We applied an integrated HPLC system (Jasco, Tokyo, Japan) built up from an autosampler (AS-4050), a binary pump (PU-4180), and a fluorescence detector (FP-920). Chromatographic” for “Chromatographic”

[6] = molecular target: T2, human serum albumin (HSA); experiment: UV-Vis spectroscopic studies: HSA-induced increase in the absorbance of Heme site ligands; type: binding; settings: for Kd at 5 μM: human, human serum albumin (HSA) solution in PBS; for Higher binding constant by Hyperquad evaluation of UV-Vis data: compared with quenching studies and Scatchard plot evaluation
Method: UV-Vis spectra were recorded in PBS (pH 7.4) at 25 °C, employing a Jasco V730 UV-Vis spectrophotometer (Tokyo, Japan). Absorption spectra of Heme site ligands (5.0 μM each) have been recorded without and with increasing concentrations of HSA (0.0, 0.2, 0.5, 0.7, 1.0, 1.5, 2.0, 5.0, 10, and 15 μM). Binding constants (K) of ligand–albumin complexes were determined based on the HSA-induced increase in their absorbance (at 480 nm for BIL, at 390 nm for BVD, at 400 nm for HEM, and at 460 nm for MO). […] Binding constants (K; unit: L/mol) were calculated with linear and non-linear fitting, using the Scatchard equation [58] and the Hyperquad2006 software, respectively. The Scatchard equation for 1:1 binding model follows:(1) (A−A0)/[HSA]0=(Aligand−HSA−A0)×K−(A−A0)×K where A0 and A are the absorbance values of the ligand in the absence and presence of HSA, respectively; Aligand-HSA is the absorbance when each ligand molecule bound to HSA, and [HSA] is the concentration of albumin (unit: mol/L).
The following equations are implemented in the Hyperquad program code: (2) aLIGAND+bHSA ↔LIGANDaHSAb (3) βab=[LIGANDaHSAb]/[LIGAND]^a[HSA]^b where a and b indicate the stoichiometry associated with the equilibria in the solution. All equilibrium constants are defined as overall association constants (β):(4) LIGAND+HSA ↔LIGAND HSA; β1=[LIGAND HSA]/[LIGAND][HSA] (5) 2 LIGAND+HSA ↔LIGAND2 HSA; β2=[LIGAND2HSA]/[LIGAND]^2[HSA] (6) aLIGAND+HSA ↔LIGANDaHSA; βa=[LIGANDaHSA]/[LIGAND]^a[HSA]
The stepwise association constants (K) are defined by β:(7) β1=K1; β2=K1×K2; βa=K1×K2×…×Ka
During data evaluation the stoichiometry and association constants of the ligand binding process were calculated using the lowest standard deviation model.

[7] = cited from earlier work
[8] = linear fitting, whole ligand range 0–15 μM, PBS pH 7.4, λex 295 nm, λem 340 nm, mean ± SEM
[9] = evaluated in the 0.5–3 µM concentration range, PBS pH 7.4
[10] = evaluated in the 3–15 µM concentration range, PBS pH 7.4
[11] = non-linear fitting, whole ligand range 0–15 μM, PBS pH 7.4, mean ± SEM
[12] = ligand 0–20 μM, PBS pH 7.4, 30 kDa MWCO, HPLC-FLD
[13] = linear fitting, K unit L/mol, ligand 5 μM, HSA 0–15 μM, PBS pH 7.4, 25 °C, mean ± SEM, read-out: UV-Vis Spectroscopy Scatchard Plot logK (converted)
[14] = non-linear fitting, K unit L/mol, ligand 5 μM, HSA 0–15 μM, PBS pH 7.4, 25 °C, mean ± SEM, read-out: UV-Vis Spectroscopy Hyperquad logK (converted)

CN(C)c1ccc(/N=N/c2ccc(S(=O)(=O)O)cc2)cc1 [MO, methyl orange]
Effect on the fluorescence emission signal of WAR (WAR–HSA complex) [1]: strongly reduced
Kd ([2]; human, human serum albumin (HSA) solution in PBS, non-linear fitting, whole ligand range 0–15 μM, PBS pH 7.4, mean ± SEM): 14.8 µM
Fluorescence Quenching Stern–Volmer Plot logKSV [2, 8]: 4.76 ± 0.02
logK of the MO–HSA complex ([3]; K in L/mol): 5.4
binding constant of the MO–HSA complex [3]: 230000 L/mol
Effect on the filtered fraction of WAR (ultrafiltration) ([4]; ligand 1 μM): significantly reduced
Effect on the filtered fraction of WAR (ultrafiltration) ([4]; ligand 2–20 μM): further gradual decrease
Effect on the unbound fraction of WAR in the supernatant (ultracentrifugation) [5]: considerably decreased
Kd at 5 μM ([6]; pH 7.4, linear fitting, K unit L/mol, ligand 5 μM, HSA 0–15 μM, PBS pH 7.4, 25 °C, mean ± SEM, read-out: UV-Vis Spectroscopy Scatchard Plot logK (converted)): 64.6 µM
Kd at 5 μM ([6]; pH 7.4, non-linear fitting, K unit L/mol, ligand 5 μM, HSA 0–15 μM, PBS pH 7.4, 25 °C, mean ± SEM, read-out: UV-Vis Spectroscopy Hyperquad logK (converted)): 18.2 µM

hemin
Effect on the fluorescence emission signal of WAR (WAR–HSA complex) [1]: strongly reduced
Fluorescence Quenching Hyperquad logK [2, 9]: 5.34 ± 0.01
Fluorescence Quenching Stern–Volmer Plot logKSV [2, 9]: 5.23 ± 0.02
Fluorescence Quenching Hyperquad logK [2, 10]: 5.53 ± 0.02
Fluorescence Quenching Stern–Volmer Plot logKSV [2, 10]: 5.55 ± 0.03
Fluorescence Quenching Stern–Volmer Plot logKSV [2, 8]: 5.54 ± 0.02
Fluorescence Quenching Hyperquad logK [2, 11]: 5.49 ± 0.02
Effect on the filtered fraction of WAR (ultrafiltration) ([4]; ligand 1–5 μM): decreased
Effect on the filtered fraction of WAR (ultrafiltration) ([4]; ligand 10 and 20 μM): gradual elevation
Higher binding constant by Hyperquad evaluation of UV-Vis data [6]: approximately 100 fold
UV-Vis Spectroscopy Scatchard Plot logK ([6]; linear fitting, K unit L/mol, ligand 5 μM, HSA 0–15 μM, PBS pH 7.4, 25 °C, mean ± SEM): 5.74 ± 0.04
UV-Vis Spectroscopy Hyperquad logK ([6]; non-linear fitting, K unit L/mol, ligand 5 μM, HSA 0–15 μM, PBS pH 7.4, 25 °C, mean ± SEM): 7.4 and 7.35 ± 0.03

C=CC1=C(C)/C(=C/c2[nH]c(Cc3[nH]c(/C=C4\NC(=O)C(C)=C4C=C)c(C)c3CCC(=O)O)c(CCC(=O)O)c2C)NC1=O [BIL, bilirubin]
Effect on the fluorescence emission signal of WAR (WAR–HSA complex) [1]: strongly reduced
Fluorescence Quenching Stern–Volmer Plot logKSV [2, 8]: 5.26 ± 0.01
Kd [2, 11]: 4.47 µM
Effect on the filtered fraction of WAR (ultrafiltration) [4, 12]: strongly increased
Effect on albumin binding of WAR (ultrafiltration) ([4]; ligand 5 μM): disrupted
Effect on albumin binding of WAR (ultrafiltration) ([4]; ligand 20 μM): almost completely abolished
Effect on the unbound fraction of WAR in the supernatant (ultracentrifugation) [5]: significantly increased
Higher binding constant by Hyperquad evaluation of UV-Vis data [6]: approximately 100 fold
Kd [6, 13]: 1.48 µM
Kd [6, 14]: 0.0295 µM

C=CC1=C(C)c2cc3[n-]c(cc4[n-]c(cc5nc(cc1n2)C(C)=C5C=C)c(C)c4CCC(=O)O)c(CCC(=O)O)c3C.[Fe+2] [heme]
Effect on the binding affinity of certain Site I ligands toward HSA ([3]; Site I ligands: abacavir, efavirenz, zidovudine, furosemide, indomethacin, phenylbutazone): strongly decrease
Effect on the binding constant of the WAR–HSA complex [3]: only slightly reduced

CCCCCCCCCCCCCCCCCC(=O)O [stearic acid]
Increase in the emission intensity at 379 nm (WAR–HSA complex) ([1]; fatty acid 0–10 μM): ~2.5 fold
Effect on the filtered fraction of WAR (ultrafiltration) [4, 12]: decreased

CC(=O)CC(c1ccccc1)c1c(O)c2ccccc2oc1=O (stereo not drawn) [WAR, warfarin]
plasma protein binding [7]: ≈ 99%
binding constant (K) of WAR–HSA complex ([3]; spectroscopic, affinity chromatography and ultracentrifugation experiments): approximately 2 × 10^5 L/mol

C=CC1=C(C)/C(=C/C2=NC(=C\c3[nH]c(/C=C4\NC(=O)C(C)=C4C=C)c(C)c3CCC(=O)O)/C(CCC(=O)O)=C2C)NC1=O [BVD, biliverdin]
Effect on the fluorescence emission signal of WAR (WAR–HSA complex) [1]: strongly reduced
Fluorescence Quenching Stern–Volmer Plot logKSV [2, 8]: 5.37 ± 0.03
Kd [2, 11]: 3.55 µM
logK of the BVD–HSA complex ([3]; K in L/mol): ≈ 6
binding constant of the BVD–HSA complex [3]: approximately 10^6 L/mol
Kd [6, 13]: 11 µM
Kd [6, 14]: 2.82 µM

Source: PMC9694159 (International Journal of Molecular Sciences, 2022)
